Data on 16 compounds can be found in patent US10221174B2, “N-(phenylsulfonyl)benzamides and related compounds as BCL-2 inhibitors” (THE REGENTS OF THE UNIVERSITY OF MICHIGAN, priority 2016, dated 2019).

The structures appear in SMILES notation. Where two headings read alike, the source gives them in different places. A value given as a limit tells only on which side of the number the result lay.

Assay [1] concerns MV4;11 cell line. Put plainly: MV4;11 inhibition. The class given is cell-based.
The test system of assay [2] is RS4;11 cells. Put plainly: RS4;11 cell viability, CCK-8 assay. The assay is classed as cell-based. To be noted: Homo sapiens, RS4-11, 96 h, CCK-8, 4 days, read-out: RS4, 11 IC50 (Bcl-2 dependent). Here is the method:
RS4;11 cells were obtained from American Type Culture Collection (ATCC). They were used within three months of thawing fresh vials. Cells were maintained in the recommended culture medium with 10% FBS at 37° C. and an atmosphere of 5% CO2.
The effect of representative Compounds of the Disclosure on cell viability was determined using Cell Counting Kit-8 (CCK-8) assay (Dojindo, Rockville, Md.) according to the manufacturer's instructions. 200 μL of a RS4;11 cell suspension (10000 cells/well) in culture medium were seeded into 96-well plates and cultured overnight. Each tested compound was serially diluted in culture medium, and 20 μL of the compound dilution was added to the corresponding well of the cell plate. After the addition of the tested compound, the cells were incubated at 37° C. in an atmosphere of 5% CO2 for 4 days. At the end of 4 days, 10 μL of CCK-8 solution was added to each well of the plate and incubated for 1-4 hours. The plates were read at 450 nm on the microplate spectrophotometer (Epoch2, BioTek). The readings were normalized to the vehicle cells, and the IC50 was calculated by nonlinear regression analysis using GraphPad Prism 5 software.
(Formazan colour is commonly taken as a measure of viable cells.)

Assay [3] concerns the target Bcl-xL (Homo sapiens (Human), UniProt Q07817). As to the kind of experiment: Fluorescence polarization competitive binding assay, Bcl-xL. To be noted: FP competition, 10 nM Bcl-xL, 2 nM Flu-BAK probe; read-out: Inhibitory activity IC50 Bcl-xL. On the technique in general: Fluorescence polarisation rises when a labelled molecule tumbles more slowly, as on binding a larger partner.
Protocol: (§1) Fluorescence polarization values were measured using the Infinite M-1000 plate reader (Tecan U.S., Research Triangle Park, N.C.) in Microfluor 1 96-well, black, round-bottom plates (Thermo Scientific). […] Plates were mixed and incubated at room temperature for 1 hour with gentle shaking to assure equilibrium. […] Equilibrium dissociation constants (Kd) were then calculated by fitting the sigmoidal dose-dependent FP increases as a function of protein concentrations using Graphpad Prism 5.0 software (Graphpad Software, San Diego, Calif.).
(§2) Mixtures of 5 μl of the tested inhibitors in DMSO and 120 μl of pre-incubated protein/probe complexes in the assay buffer were added into assay plates and incubated at room temperature for 2 hours with gentle shaking. […] FP values were measured as described above. IC50 values were determined by nonlinear regression fitting of the competition curves.

The target in assay [4] is Bcl-2 (Homo sapiens (Human), UniProt P10415).
Sequence of Bcl-2 (P10415 whole entry): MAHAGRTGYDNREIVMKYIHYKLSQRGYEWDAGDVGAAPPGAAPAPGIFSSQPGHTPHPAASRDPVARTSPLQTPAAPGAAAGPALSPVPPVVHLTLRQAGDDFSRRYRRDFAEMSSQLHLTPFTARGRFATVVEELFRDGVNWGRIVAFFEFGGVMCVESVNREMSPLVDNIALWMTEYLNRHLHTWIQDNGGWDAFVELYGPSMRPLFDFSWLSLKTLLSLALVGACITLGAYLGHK
Protocol: as §1, §2

Sequence of Bcl-xL (Q07817 whole entry): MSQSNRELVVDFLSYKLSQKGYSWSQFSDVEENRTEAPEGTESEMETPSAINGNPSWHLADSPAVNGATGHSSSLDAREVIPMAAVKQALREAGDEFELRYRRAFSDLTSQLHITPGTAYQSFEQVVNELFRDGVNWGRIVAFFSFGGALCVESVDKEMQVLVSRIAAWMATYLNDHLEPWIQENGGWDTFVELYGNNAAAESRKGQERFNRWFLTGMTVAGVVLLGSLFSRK

As to `COCCOCCNc1ccc(S(=O)(=O)NC(=O)c2ccc(N3CCN(CC4=C(c5ccc(Cl)cc5)CC5(CCC5)CC4)CC3)c(F)c2Oc2cnc3[nH]ccc3c2)cc1[N+](=O)[O-]` [compound 43, 2-((1H-pyrrolo[2,3-b]pyridin-5-yl)oxy)-4-(4-((6-(4-chlorophenyl)spiro[3.5]non-6-en-7-yl)methyl)piperazin-1-yl)-3-fluoro-N-((4-((2-(2-methoxyethoxy)ethyl)amino)-3-nitrophenyl)sulfonyl)benzamide], the IC50 (usually the concentration needed to halve the response being measured) stood at 0.126 µM in assay [1] (Homo sapiens, MV4-11) and 0.08 µM in assay [2].
On to `O=C(NS(=O)(=O)c1cc([N+](=O)[O-])n(CC2CCOCC2)c1)c1ccc(N2CCN(CC3=C(c4ccc(Cl)cc4)CC4(CCC4)CC3)CC2)cc1Oc1cnc2[nH]ccc2c1` [Cpd. No. 25, 2-((1H-pyrrolo[2,3-b]pyridin-5-yl)oxy)-4-(4-((6-(4-chlorophenyl)spiro[3.5]non-6-en-7-yl)methyl)piperazin-1-yl)-N-((5-nitro-1-((tetrahydro-2H-pyran-4-yl)methyl)-1H-pyrrol-3-yl)sulfonyl)benzamide], for which the IC50 worked out at 5.15 µM in assay [1] (Homo sapiens, MV4-11) and 1.09 µM in assay [2].
On to `O=C(NS(=O)(=O)c1ccc(NCC2CCOCC2)c([N+](=O)[O-])c1)c1ccc(C2=CCN(CC3=C(c4ccc(Cl)cc4)CC4(CCC4)CC3)CC2)cc1Oc1cnc2[nH]ccc2c1` [compound 7, 2-((1H-pyrrolo[2,3-b]pyridin-5-yl)oxy)-4-(1-((6-(4-chlorophenyl)spiro[3.5]non-6-en-7-yl)methyl)-1,2,3,6-tetrahydropyridin-4-yl)-N-((3-nitro-4-(((tetrahydro-2H-pyran-4-yl)methyl)amino)phenyl)sulfonyl)benzamide], for which the IC50 amounted to 0.035 µM in assay [2] and 0.0157 µM in assay [3].
Consider `O=C(NS(=O)(=O)c1ccc(NCC2CCOCC2)c([N+](=O)[O-])c1)c1ncc(N2CCN(CC3=C(c4ccc(Cl)cc4)CC4(CCC4)CC3)CC2)cc1Oc1cnc2[nH]ccc2c1` [compound 30, 3-((1H-pyrrolo[2,3-b]pyridin-5-yl)oxy)-5-(4-((6-(4-chlorophenyl)spiro[3.5]non-6-en-7-yl)methyl)piperazin-1-yl)-N-((3-nitro-4-(((tetrahydro-2H-pyran-4-yl)methyl)amino)phenyl)sulfonyl)picolinamide], for which the IC50 was found to be 0.0225 µM in assay [1] (Homo sapiens, MV4-11) and 0.019 µM in assay [2].
Taken in the same sequence, the figures for `COCCOCCNc1ccc(S(=O)(=O)NC(=O)c2cc(F)c(N3CCN(CC4=C(c5ccc(Cl)cc5)CC5(CCC5)CC4)CC3)cc2Oc2cnc3[nH]ccc3c2)cc1[N+](=O)[O-]` [compound 37, 2-((1H-pyrrolo[2,3-b]pyridin-5-yl)oxy)-4-(4-((6-(4-chlorophenyl)spiro[3.5]non-6-en-7-yl)methyl)piperazin-1-yl)-5-fluoro-N-((4-((2-(2-methoxyethoxy)ethyl)amino)-3-nitrophenyl)sulfonyl)benzamide] were 0.154 µM and 0.068 µM.
Taken in the same sequence, the figures for `O=C(NS(=O)(=O)c1ccc(NC[C@H]2COCCO2)c([N+](=O)[O-])c1)c1ncc(N2CCN(CC3=C(c4ccc(Cl)cc4)CC4(CCC4)CC3)CC2)cc1Oc1cnc2[nH]ccc2c1` [compound 27, (S)-N-((4-(((1,4-dioxan-2-yl)methyl)amino)-3-nitrophenyl)sulfonyl)-3-((1H-pyrrolo[2,3-b]pyridin-5-yl)oxy)-5-(4-((6-(4-chlorophenyl)spiro[3.5]non-6-en-7-yl)methyl)piperazin-1-yl)picolinamide] were 0.0169 µM and 0.0052 µM.
For the compound `O=C(NS(=O)(=O)c1cc([N+](=O)[O-])c2c(cnn2CC2CCOCC2)c1)c1ccc(N2CCN(CC3=C(c4ccc(Cl)cc4)CC4(CCC4)CC3)CC2)cc1Oc1cnc2[nH]ccc2c1` [compound 60, 2-((1H-pyrrolo[2,3-b]pyridin-5-yl)oxy)-4-(4-((6-(4-chlorophenyl)spiro[3.5]non-6-en-7-yl)methyl)piperazin-1-yl)-N-((7-nitro-1-((tetrahydro-2H-pyran-4-yl)methyl)-1H-indazol-5-yl)sulfonyl)benzamide], the IC50 stood at 0.252 µM in assay [2] and 0.0675 µM in assay [3].
Regarding `O=C(NS(=O)(=O)c1cc([N+](=O)[O-])c2[nH]c(-c3ccncc3)nc2c1)c1ccc(N2CCN(CC3=C(c4ccc(Cl)cc4)CC4(CCC4)CC3)CC2)cc1Oc1cnc2[nH]ccc2c1` [compound 66, 2-((1H-pyrrolo[2,3-b]pyridin-5-yl)oxy)-4-(4-((6-(4-chlorophenyl)spiro[3.5]non-6-en-7 yl)methyl)piperazin-1-yl)-N-((7-nitro-2-(pyridin-4-yl)-1H-benzo[d]imidazol-5-yl)sulfonyl)benzamide], the IC50 is greater than 1000 µM in assay [1] (Homo sapiens, MV4-11) and 0.243 µM in assay [2].
With `O=C(NS(=O)(=O)c1cccc([N+](=O)[O-])c1)c1ccc(N2CCN(CC3=C(c4ccc(Cl)cc4)CC4(CCC4)CC3)CC2)cc1Oc1cnc2[nH]ccc2c1` [Cpd. No. 4, 2-((1H-pyrrolo[2,3-b]pyridin-5-yl)oxy)-4-(4-((6-(4-chlorophenyl)spiro[3.5]non-6-en-7-yl)methyl)piperazin-1-yl)-N-((3-nitrophenyl)sulfonyl)benzamide], the concentration for half-maximal inhibition (IC50) was 0.427 µM in assay [2], 0.0086 µM in assay [3] and 0.0031 µM in assay [4].
For `O=C(NS(=O)(=O)c1ccc(NC[C@H]2COCCO2)c([N+](=O)[O-])c1)c1cc(F)c(N2CCN(CC3=C(c4ccc(Cl)cc4)CC4(CCC4)CC3)CC2)cc1Oc1cnc2[nH]ccc2c1` [compound 39, (S)-N-((4-(((1,4-dioxan-2-yl)methyl)amino)-3-nitrophenyl)sulfonyl)-2-((1H-pyrrolo[2,3-b]pyridin-5-yl)oxy)-4-(4-((6-(4-chlorophenyl)spiro[3.5]non-6-en-7-yl)methyl)piperazin-1-yl)-5-fluorobenzamide], the IC50 in assay [1] turned out to be 0.0337 µM; in assay [2], 0.031 µM.
For the compound `O=C(NS(=O)(=O)c1ccc(NCC2CCOCC2)c([N+](=O)[O-])c1)c1ccc(N2CCN(CC3=C(c4ccc(Cl)cc4)CC4(CCC4)CC3)CC2)c(F)c1Oc1cnc2[nH]ccc2c1` [compound 42, 2-((1H-pyrrolo[2,3-b]pyridin-5-yl)oxy)-4-(4-((6-(4-chlorophenyl)spiro[3.5]non-6-en-7-yl)methyl)piperazin-1-yl)-3-fluoro-N-((3-nitro-4-(((tetrahydro-2H-pyran-4-yl)methyl)amino)phenyl)sulfonyl)benzamide], the IC50 in assay [1] (Homo sapiens, MV4-11) stood at 0.0881 µM; in assay [2], 0.111 µM.
For the compound `O=C(NS(=O)(=O)c1cc(F)c(NCC2CCOCC2)c([N+](=O)[O-])c1)c1ccc(N2CCN(CC3=C(c4ccc(Cl)cc4)CC4(CCC4)CC3)CC2)cc1Oc1cnc2[nH]ccc2c1` [compound 29, 2-((1H-pyrrolo[2,3-b]pyridin-5-yl)oxy)-4-(4-((6-(4-chlorophenyl)spiro[3.5]non-6-en-7-yl)methyl)piperazin-1-yl)-N-((3-fluoro-5-nitro-4-(((tetrahydro-2H-pyran-4-yl)methyl)amino)phenyl)sulfonyl)benzamide], the IC50 in assay [1] (Homo sapiens, MV4-11) was determined as 0.0482 µM; in assay [2], 0.012 µM.
As to `O=C(NS(=O)(=O)C1=CC2C(=O)N(C3CCOCC3)CC2C([N+](=O)[O-])=C1)c1ccc(N2CCN(CC3=C(c4ccc(Cl)cc4)CC4(CCC4)CC3)CC2)cc1Oc1cnc2[nH]ccc2c1` (stereo not drawn) [compound 23, 2-((1H-pyrrolo[2,3-b]pyridin-5-yl)oxy)-4-(4-((6-(4-chlorophenyl)spiro[3.5]non-6-en-7-yl)methyl)piperazin-1-yl)-N-((7-nitro-3-oxo-2-(tetrahydro-2H-pyran-4-yl)-2,3,3a,7a-tetrahydro-1H-isoindol-5-yl)sulfonyl)benzamide], the IC50 in assay [1] (Homo sapiens, MV4-11) came out at 0.0546 µM; in assay [2], 0.019 µM.
Take `O=C(NS(=O)(=O)c1cc([N+](=O)[O-])c2nn(CC3CCOCC3)cc2c1)c1ccc(N2CCN(CC3=C(c4ccc(Cl)cc4)CC4(CCC4)CC3)CC2)cc1Oc1cnc2[nH]ccc2c1` [compound 61, 2-((1H-pyrrolo[2,3-b]pyridin-5-yl)oxy)-4-(4-((6-(4-chlorophenyl)spiro[3.5]non-6-en-7-yl)methyl)piperazin-1-yl)-N-((7-nitro-2-((tetrahydro-2H-pyran-4-yl)methyl)-2H-indazol-5yl)sulfonyl)benzamide]: the results for the IC50 in assay [2] and in assay [3] were 0.043 µM and 0.0131 µM, respectively.
On to `O=C(NS(=O)(=O)c1cc(F)c(NC[C@H]2COCCO2)c([N+](=O)[O-])c1)c1ccc(N2CCN(CC3=C(c4ccc(Cl)cc4)CC4(CCC4)CC3)CC2)cc1Oc1cnc2[nH]ccc2c1` [Cpd. No. 40, (S)-N-((4-(((1,4-dioxan-2-yl)methyl)amino)-3-fluoro-5-nitrophenyl)sulfonyl)-2-((1H-pyrrolo[2,3-b]pyridin-5-yl)oxy)-4-(4-((6-(4-chlorophenyl)spiro[3.5]non-6-en-7-yl)methyl)piperazin-1-yl)benzamide], for which the half-maximal inhibitory concentration (IC50) in assay [1] (Homo sapiens, MV4-11) came out at 0.00246 µM; in assay [2] it was 0.0014 µM.
Taken in the same sequence, the figures for `COCCOCCNc1ccc(S(=O)(=O)NC(=O)c2ncc(N3CCN(CC4=C(c5ccc(Cl)cc5)CC5(CCC5)CC4)CC3)cc2Oc2cnc3[nH]ccc3c2)cc1[N+](=O)[O-]` [compound 31, 3-((1H-pyrrolo[2,3-b]pyridin-5-yl)oxy)-5-(4-((6-(4-chlorophenyl)spiro[3.5]non-6-en-7-yl)methyl)piperazin-1-yl)-N-((4-((2-(2-methoxyethoxy)ethyl)amino)-3-nitrophenyl)sulfonyl)picolinamide] were 0.116 µM and 0.034 µM.
